The record followed here is BindingDB's records for doi:10.7270/Q2J101NV (Burnham Center For Chemical Genomics, 2010).

This test deals with T1, Alkaline phosphatase, tissue-nonspecific isozyme (Homo sapiens, UniProt P05186).
T1 sequence (P05186 whole entry): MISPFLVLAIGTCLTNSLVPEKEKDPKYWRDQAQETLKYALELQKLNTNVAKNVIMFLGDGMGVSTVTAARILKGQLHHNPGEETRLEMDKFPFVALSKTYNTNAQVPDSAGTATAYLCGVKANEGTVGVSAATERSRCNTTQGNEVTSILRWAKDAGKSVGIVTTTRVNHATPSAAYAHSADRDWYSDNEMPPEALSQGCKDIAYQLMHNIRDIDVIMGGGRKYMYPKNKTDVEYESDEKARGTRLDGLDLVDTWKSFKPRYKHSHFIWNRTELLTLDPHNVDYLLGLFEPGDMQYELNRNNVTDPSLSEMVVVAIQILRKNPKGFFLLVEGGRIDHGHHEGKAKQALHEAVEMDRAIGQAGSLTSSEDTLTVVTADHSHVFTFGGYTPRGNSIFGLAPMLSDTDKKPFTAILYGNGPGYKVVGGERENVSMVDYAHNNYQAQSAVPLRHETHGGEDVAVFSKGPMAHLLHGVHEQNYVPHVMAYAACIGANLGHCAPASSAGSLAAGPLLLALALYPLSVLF
The test is described as follows: activation of tissue-nonspecific alkaline phosphatase – biochemical, TNAP isozyme, mouse IAP uHTS hits, selectivity assay for mouse IAP activator project, dose response (AID 488880).
For `CN(CCO)c1ccc(CN=Nc2ccc([N+](=O)[O-])cc2S(=O)(=O)Nc2ccccc2C(=O)O)cc1`, the EC50 came out at 19.7 µM. Consider `O=C(NN=CC1=CC(=O)C(=O)CC1)NN=CC1=CC(=O)C(=O)CC1` [1,3-bis[[(Z)-(3-hydroxy-4-oxocyclohexa-2,5-dien-1-ylidene)methyl]amino]urea], for which a half-maximal effect (EC50) was put at 79.4 µM. Against the preceding compound, the EC50 is about 4-fold higher. Next, `O=C1CC(=O)c2c(O)cc(O)c(O)c2C1=O` [4,5,7,8-tetrahydroxy-1,2-naphthoquinone]: more than 100 µM; `C#CCOCCOCCOCCNc1nc(N2CCN(C(=O)CCCCCCCCCCNC(=O)[C@@H](CCC(=O)O)n3cc(CCCCCN)nn3)CC2)nc(N2CCN(C(=O)CCCCCCCCCCNC(=O)[C@H]([C@@H](C)CC)n3cc(CCCCCN)nn3)CC2)n1` [KI-KE]: more than 100 µM; `Cc1cc(=O)[nH]c(N=NCc2ccc(O)c(O)c2)n1` [MLS001194906]: 56.1 µM.

As a reminder, the EC50 is the concentration at which the effect is half-maximal. Low readings indicate a more potent agent, high ones a less potent agent.
